Results published in ChEMBL document CHEMBL1145715, “Massetolides A-H, antimycobacterial cyclic depsipeptides produced by two pseudomonads isolated from marine habitats” (J Nat Prod, 1997).
Converted amounts (≈) assume the structure as drawn. The source made the active and inactive calls. The calls are words filed in the database; no cut-off is given here.

Experiments:
Escherichia coli = assay: Antibacterial activity against Escherichia coli by middle-brook 7H10 agar proportion method; assay type: functional, organism-based
Staphylococcus aureus = assay: Antibacterial activity against Staphylococcus aureus by middle-brook 7H10 agar proportion method; assay type: functional, organism-based
[1] = system: Mycobacterium tuberculosis; assay: Antimycobacterial activity against Mycobacterium tuberculosis by middle-brook 7H10 agar proportion method; assay type: functional
[2] = system: Mycobacterium avium-intracellulare; assay: Antimycobacterial activity against Mycobacterium avium-intracellulare by middle-brook 7H10 agar proportion method; assay type: functional
Mus musculus = assay: Toxicity in mouse at 10 mg/kg, ip; assay type: organism-based; design: dose 10 mg/kg, route intraperitoneal; conditions: in vivo

CCCCCCC[C@H](O)CC(=O)N[C@@H](CC(C)C)C(=O)N[C@H](CCC(=O)O)C(=O)N[C@H]1C(=O)N[C@H]([C@H](C)CC)C(=O)N[C@@H](CC(C)C)C(=O)N[C@H](CO)C(=O)N[C@@H](CC(C)C)C(=O)N[C@H](CO)C(=O)N[C@@H]([C@H](C)CC)C(=O)O[C@@H]1C
Activity (Escherichia coli): inactive | Activity (Staphylococcus aureus): inactive

CCCCCCC[C@H](O)CC(=O)N[C@@H](CC(C)C)C(=O)N[C@H](CCC(=O)O)C(=O)N[C@H]1C(=O)N[C@H]([C@@H](C)CC)C(=O)N[C@@H](CC(C)C)C(=O)N[C@H](CO)C(=O)N[C@@H](CC(C)C)C(=O)N[C@H](CO)C(=O)N[C@@H]([C@@H](C)CC)C(=O)O[C@@H]1C [MASSETOLIDE A]
MIC [1]: 5 µg/mL (≈ 4.38 µM) | MIC [2]: 2.5 µg/mL (≈ 2.19 µM) | Activity (Mus musculus): Non-toxic
